Reference: patent US10729659B2, “Nanogel-mediated drug delivery” (The Cleveland Clinic Foundation, priority 2012, dated 2020)

How the values were obtained:
[1] = cited from earlier work
p21 = test: Western blotting of p21; assay type: cell-based, human; conditions: MCF-7/Adr
Protocol: (§1) Whole cell lysates, were made by lysing 1×10^6 treated or untreated cells, with RIPA buffer (Sigma-Aldrich, St. Louis, Mo.) containing 1× protease inhibitor cocktail (Calbiochem, Gibbstown, N.J.). Lysates were collected by centrifugation at 14,000 rpm for 15 min Protein concentration was determined by a bicinchoninic acid (BCA) assay kit (Pierce, Rockford, Ill.). 20-40 μg proteins of cell lysates were electrophoresed through 13.5% SD Spolyacrylamide gel or 4-15% linear pre-cast polyacrylamide gradient gel (Bio-Rad Laboratories, Hercules, Calif.) and transferred to polyvinylidene difluoride (PVDF) membranes (GE Healthcare Bio-sciences, corp., Piscataway, N.J.). The blots were probed for mouse monoclonal p21 (Cell Signaling Technology, Inc., Danvers, Mass.), mouse monoclonal DNMT1 (Abcam Inc., Cambridge, Mass.), and mouse monoclonal anti-actin (Sigma-Aldrich, St. Louis, Mo.). For detection of bound antibody, PVDF membrane was incubated with horse radish—tagged, goat anti-mouse antibody. After incubation membrane was washed with TBST, and stained with enhanced chemiluminescence (ECL) reagent or ECL plus reagent (GE Healthcare Bio-sciences, corp., Piscataway, N.J.) according to manufacturer protocol.

[2] = rat model; cited from earlier work
[3] = DAC stability in liver extract; assay type: in vitro ADME; conditions: 15% w/v liver extract of athymic nude mice
Protocol: Freshly prepared DAC solution (50 μg/mL) or DAC loaded nanogel (equivalent drug concentration) was added in cell culture media (DMEM supplemented with 15% FBS and 1% penicillin-streptomycin), and incubated in cell culture incubator at 37° C. in a 5% CO2. Samples were incubated as 2 mL aliquots at 37° C., collected at various time points and lyophilized for 48 h at −48° C., 3.5 Pa, using FreeZone 4.5 (Labconco Corp., Kansas City, Mo.). DAC was extracted from lyophilized samples by adding 3 mL of methanol and kept on an orbital rotating shaker at 100 rpm in cold room overnight. 1 mL of methanolic extract was centrifuged at 14,000 rpm for 15 min at 4° C.; supernatant was collected and analyzed by HPLC. Identical protocol was followed for analyzing the stability of DAC in Mili Q water containing 15% heat inactivated or normal serum. Stability of DAC was also analyzed in 15% w/v liver extract of athymic nude mice using the indicated protocol.

MDA-MB 231 cells = test: Physical characterization of exosomes from DAC treated cells; assay type: cell-based, human; conditions: exosomes from cells treated with DAC 0.5 μM, 24 h
Protocol: Exosome isolation protocol: MDA-MB 231 cells were grown in DMEM supplemented with 10% fetal bovine serum (FBS), and 1% antibiotics. Prior to use in cell culture; the cell culture medium was depleted of endogenous exosomes present in FBS. Exosomes depleted media were prepared by 16 h of ultracentrifugation of cell culture medium supplemented with 50% FBS at 100, 000×g and filtered through 0.2 μm filter. Through out this process sterile conditions were maintained.
To isolate the exosomes from cells treated with DAC, cells were cultured in 10 cell culture dishes (150×25 mm), When the cells were at 70% confluency, the cells were washed with 1×PBS, re-fed with endogenous exosomes depleted media containing DAC (0.5 μM) and incubated for 24 h. Because of small production of exosomes from cultured cells, culture media from all the DAC treated plates were pooled for exosome isolation. All the exosome isolation procedures were done at 4° C. Culture supernatants were first centrifuged at 300×g for 10 min to pellet the cells. To remove the dead cells, supernatant was centrifuged at 2,000×g for 15 min (Sorvall Legend RTcentrifuge, Thermo Electron Corp. Waltham, Mass.). Supernatant was pipetted off and transferred to pre-cooled polycarbonate tubes appropriate for 50.1Ti fixed angle ultracentrifugation rotor (Beckman Coulter Inc., Fullerton, Calif., USA) and centrifuged at 10,000×g for 30 min to remove cell debris. Pellet was discarded and supernatant was aliquoted to several ultracentrifuge tubes and centrifuged at 110,000×g for 70 min to pellet exosomes. Supernatant was discarded. The pellet in each tube was re-suspended in 1 mL PBS and pooled in to single ultracentrifuge tube and centrifuged at 110,000×g for 70 min. […]
Five micro-liter of PFA fixed exosome suspension was dropped on 200 mesh formvar—carbon coated EM grid (grid size: 97 μm) (TEDPELLA, Redding, Calif., USA) and exosomes were allowed to adsorb to the grids by drying the suspension at room temperature for 20-30 min. […] From TEM images sizes of exosomes were measured using Image J software.

DNMT1 = target: T1, DNMT1 (Homo sapiens, UniProt P26358); test: Western blot of DNMT1 depletion in MCF-7/Adr cells; assay type: cell-based
T1 construct: Whole cell lysates were collected at the end of each time point and western blot was done for the expression of DNMT1; endogenous in cells; host or cells: MCF-7/Adr cells
Protocol: as §1, with “protocol. […]” for “protocol.”

[4] = cited from earlier work; remark: listed apart in the source
[5] = DAC stability in cell culture media; assay type: physicochemical; conditions: 50 μg/mL, DMEM with 15% FBS, 37° C.
Protocol: Samples were incubated as 2 mL aliquots at 37° C., collected at various time points and lyophilized. To extract DAC from lyophilized samples 3 mL of methanol was added and kept on orbital rotating shaker at 100 rpm in cold room overnight.

P-gp = test: Western blot of P-gp expression in MCF-7/Adr cells; assay type: cell-based, human
Excerpt: Proteins ([…]) from DAC treated or untreated cell lysates in RIPA buffer were probed for mouse monoclonal P-glycoprotein (calbiochem) and mouse anti-actin (Sigma-Aldrich, St. Louis, Mo.). Blotting and detection of the indicated proteins were done as per standard western blot protocol.

T1 sequence (P26358 whole entry): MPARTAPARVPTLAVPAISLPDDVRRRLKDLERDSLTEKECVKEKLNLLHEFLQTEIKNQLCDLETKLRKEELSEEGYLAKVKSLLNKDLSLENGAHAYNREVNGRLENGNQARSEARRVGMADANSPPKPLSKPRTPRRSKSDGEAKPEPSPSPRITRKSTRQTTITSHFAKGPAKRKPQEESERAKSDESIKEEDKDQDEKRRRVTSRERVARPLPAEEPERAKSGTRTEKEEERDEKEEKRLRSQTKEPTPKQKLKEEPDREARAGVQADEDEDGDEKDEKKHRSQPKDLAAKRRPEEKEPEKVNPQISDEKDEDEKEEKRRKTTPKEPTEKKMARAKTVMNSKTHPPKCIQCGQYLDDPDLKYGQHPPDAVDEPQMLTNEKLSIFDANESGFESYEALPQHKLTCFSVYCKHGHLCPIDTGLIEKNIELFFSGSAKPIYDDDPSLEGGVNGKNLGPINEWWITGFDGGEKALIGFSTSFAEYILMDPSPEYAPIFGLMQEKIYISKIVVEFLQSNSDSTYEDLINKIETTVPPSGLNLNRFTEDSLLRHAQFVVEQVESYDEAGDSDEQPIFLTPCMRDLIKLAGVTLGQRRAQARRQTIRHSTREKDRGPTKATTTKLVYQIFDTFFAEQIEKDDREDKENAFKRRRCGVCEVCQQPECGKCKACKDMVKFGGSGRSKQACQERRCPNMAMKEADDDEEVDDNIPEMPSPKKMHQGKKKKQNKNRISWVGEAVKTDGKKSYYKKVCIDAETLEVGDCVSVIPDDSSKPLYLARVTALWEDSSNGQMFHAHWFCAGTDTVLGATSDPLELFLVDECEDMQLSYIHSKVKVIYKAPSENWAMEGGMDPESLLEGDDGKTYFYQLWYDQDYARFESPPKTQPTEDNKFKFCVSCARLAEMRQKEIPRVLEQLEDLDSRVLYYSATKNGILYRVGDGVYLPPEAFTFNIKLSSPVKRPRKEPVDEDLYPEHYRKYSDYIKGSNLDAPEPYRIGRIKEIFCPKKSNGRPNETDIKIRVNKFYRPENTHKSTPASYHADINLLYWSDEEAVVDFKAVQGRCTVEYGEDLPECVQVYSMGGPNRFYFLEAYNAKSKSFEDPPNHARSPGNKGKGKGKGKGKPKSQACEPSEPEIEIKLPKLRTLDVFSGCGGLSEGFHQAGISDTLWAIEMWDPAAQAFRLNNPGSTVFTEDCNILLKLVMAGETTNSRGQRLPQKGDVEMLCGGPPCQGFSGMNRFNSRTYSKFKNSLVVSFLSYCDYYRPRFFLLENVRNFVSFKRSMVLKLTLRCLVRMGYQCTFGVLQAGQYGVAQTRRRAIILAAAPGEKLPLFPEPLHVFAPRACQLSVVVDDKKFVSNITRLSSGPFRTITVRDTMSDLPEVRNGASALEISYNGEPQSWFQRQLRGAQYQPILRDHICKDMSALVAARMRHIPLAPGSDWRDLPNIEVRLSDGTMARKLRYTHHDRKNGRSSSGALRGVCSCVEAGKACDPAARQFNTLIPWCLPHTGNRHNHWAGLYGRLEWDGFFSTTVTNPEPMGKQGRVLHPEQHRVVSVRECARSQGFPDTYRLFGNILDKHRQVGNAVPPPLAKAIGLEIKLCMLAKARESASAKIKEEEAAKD

## Nc1ncn([C@H]2C[C@H](O)[C@@H](CO)O2)c(=O)n1 [DAC, 5-aza-2′-deoxycytidine]
[1]; in humans
  Half-life: 10 to 35 min
[1]; in vivo
  Clearance: very high clearance
p21
  p21 protein expression (immunoblotting): significant increase
[2]
  Carcinogenicity: has not
[3]
  Complete degradation of DAC, time post incubation: 60 min
MDA-MB 231 cells
  Hydrodynamic diameter of exosomes: 495 nm
  PI of exosomes: 0.61
MDA-MB 231 cells; in nm (unit assumed)
  Exosome size by transmission electron micrograph: 97.2±8.0
DNMT1; 50 ng/mL
  Duration of DNMT1 depletion: 24 h
DNMT1; 2, 3 and 5 days post treatment
  DNMT1 levels vs untreated: No difference in DNMT1 levels
[4]
  In vivo half life: 10 to 30 min
[4]; in vivo
  Plasma protein binding: poor plasma protein binding
[5]
  No detectable levels of DAC at: 8 h
[5]; 1 h
  DAC degraded within an hour: 60%
P-gp; day 1
  Decrease in P-gp protein expression vs untreated cells: 45%
P-gp; day 3
  P-gp expression: returned to normal levels
